Source: PMC10791743, “Selective CK1α degraders exert antiproliferative activity against a broad range of human cancer cell lines” (Nature Communications, 2024)

Assays:
Test in all cases: cells
Parameters in all cases: Oncolines panel cell viability, ATPlite 1Step luminescence, duplicate 9-point dose response, IC50
U-2 OS = conditions: Homo sapiens, U2OS; 72 h viability; read-out: SJ3149
Experimental: (§1) Cell viability assays were performed as previously described. In brief, cells were seeded in a 384-well plate at an optimized density. The starting cell number was determined after 24 h incubation by adding ATPlite 1Step (Perkin Elmer, Groningen, the Netherlands) to each well and recording luminescence on an Envision multimode reader (Perkin Elmer, Waltham, MA). After the addition of a duplicate 9-point dilution series of SJ3149, cells were incubated for another 72 h, followed by cell counting using ATPlite 1Step. The dilution series ranged from 3.2 to 31,600 nM or was diluted 100-fold for the most sensitive cell lines to ideally capture the complete dose–response curve. Percentage viability was determined at each compound concentration by relating the observed signal to a vehicle-treated control, that is, medium containing 0.4% (v/v) DMSO. Compound IC50 values were calculated by fitting a 4-parameter logistic curve to the percentage viability values using IDBS XLfit5 (IDBS, Guildford, UK). The IC50 was limited to the maximum tested compound concentration when the IC50 exceeded the maximum tested concentration. […] To evaluate the compound’s effect and potential therapeutic application across a diverse range of human cancers, we profiled SJ3149 in Oncolines® panel consisting of 115 human cancer cell lines, of which 86 were solid tumor and 29 hematologic cell lines, including MOLM-13. Effect on cell viability was monitored using ATPLite™ (Perkin Elmer), which measures intracellular ATP content as an indirect readout of cell number, like CellTiter Glo.

K-562 = conditions: Homo sapiens, K562; 72 h viability; read-out: SJ3149
Experimental: as §1

COLO 205 = conditions: Homo sapiens, COLO 205; 72 h viability; read-out: SJ3149
Experimental: as §1

THP-1 = conditions: Homo sapiens, THP-1; 72 h viability; read-out: SJ3149
Experimental: as §1

Hs 746T = conditions: Homo sapiens, Hs746T; 72 h viability; read-out: SJ3149
Experimental: as §1

LS411N = conditions: Homo sapiens, LS-411N; 72 h viability; read-out: SJ3149
Experimental: as §1

MIA PaCa-2 = conditions: Homo sapiens, MIA PaCa-2; 72 h viability; read-out: SJ3149
Experimental: as §1

HCT-15 = conditions: Homo sapiens, HCT-15; 72 h viability; read-out: SJ3149
Experimental: as §1

SHP-77 = conditions: Homo sapiens, SHP77; 72 h viability; read-out: SJ3149
Experimental: as §1

CCF-STTG1 = conditions: Homo sapiens, CCF-STTG1; 72 h viability; read-out: SJ3149
Experimental: as §1

HL-60 = conditions: Homo sapiens, HL-60; 72 h viability; read-out: SJ3149
Experimental: as §1

SW480 = conditions: Homo sapiens, SW480; 72 h viability; read-out: SJ3149
Experimental: as §1

MG-63 = conditions: Homo sapiens, MG-63; 72 h viability; read-out: SJ3149
Experimental: as §1

AsPC-1 = conditions: Homo sapiens, ASPC1; 72 h viability; read-out: SJ3149
Experimental: as §1

SK-N-AS = conditions: Homo sapiens, SK-N-AS; 72 h viability; read-out: SJ3149
Experimental: as §1

C-33 A = conditions: Homo sapiens, C-33-A; 72 h viability; read-out: SJ3149
Experimental: as §1

SW620 = conditions: Homo sapiens, SW-620; 72 h viability; read-out: SJ3149
Experimental: as §1

NCI-H82 = conditions: Homo sapiens, NCI-H82; 72 h viability; read-out: SJ3149
Experimental: as §1

RPMI-7951 = conditions: Homo sapiens, RPMI-7951; 72 h viability; read-out: SJ3149
Experimental: as §1

Measured: IC50

O=C1CCC(N2Cc3cc(Nc4noc5ccccc45)ccc3C2=O)C(=O)N1 (stereo not shown) [SJ3149]
> 31.6 µM: all assays above
